Laboratory results reported in patent publication US10555930B2, “Complex of a glucopyranosyl derivative and preparation method and use thereof” (SUNSHINE LAKE PHARMA CO., LTD., priority 2015, dated 2020).

What was measured:
[1] = Pharmacokinetic evaluation in beagles after intravenous injection and oral administration; assay type: in vivo; conditions: 0.1 mg/kg
Method: The test sample (Complex (IA) prepared from example 2 of the invention) was dissolved in normal saline (100%) to get a solution at a concentration of 0.04 mg/mL, which was administered by i.v; the same test sample was suspended in 0.5% HPMC to get a suspension at a concentration of 0.02 mg/mL, 0.10 mg/mL, 0.50 mg/mL, 2.00 mg/mL, which was administered by gavage. The beagles were grouped randomly, each dosage group had 6 beagles, half male and half female, which were fasted for 12 h before administered, free drank. After administration of 4 h, beagles uniform ate. The single oral administration group was grouped to 4 dosage groups, which were administered the test sample suspension by gavage respectively, the dosage respectively was 0.1, 0.5, 2.5 and 10 mg/kg, and the volume of the suspension was 5 mL/kg. The blood samples were collected before administration of 0 h, and after administration of 0.25, 0.5, 1.0, 2.0, 4.0, 6.0, 8.0, 10, 12 and 48 h from lateral small saphenous vein or medial head vein of forelimb, which were placed into EDTA-K2 anticoagulative tubes. The i.v group had one dosage group, the test sample solution was administered by i.v at a dosage of 0.1 mg/kg, and the volume of the solution was 2.5 mL/kg. The blood samples were collected before administration of 0 h, and after administration of 5 min, 15 min, 0.5, 1.0, 2.0, 4.0, 6.0, 8.0, 10, 12 and 48 h from lateral small saphenous vein or medial head vein of forelimb, which were placed into EDTA-K2 anticoagulative tubes. The blood samples were centrifuged for 2 min at 11000 rpm, the plasma samples were isolated and stored at −70° C.±10° C.
The concentration of the test sample in plasma was analyzed by the LC-MS/MS method, the pharmacokinetic parameters were calculaged by the […] model method using WinNonlin 6.3 software, and drug-time curve was plotted.
The LC/MS/MS system comprised Agilent 1200 series vacuum […], binary pumps, well-plate autosampler, thermostatted column compartment, the API 4000 QTRAP Triple Quadrupole Mass Spectrometer with an electrosprayionization (ESI) source. Quantitative analysis was carried out using MRM mode.
A Waters Xbridge-C18, 2.1×30 mm, […] column was used for the analysis, 5 μL of the sample was injected. Analysis condition: The mobile phase was […] ammonium formate+0.1% formic acid in water (A) and 2 mM ammonium formate+0.1% formic acidin methanol (B). The flow rate was 0.4 mL/min And the gradient of Mobile phase was in the Table E.

[2] = Measurement of stability (high-temperature, high-humidity and photostability tests; HPLC impurity content); assay type: physicochemical; conditions: for total impurity / purity: 210 nm
Method: An appropriate amount of the Complex (IA) sample (prepared from example 2) was weighed and tiled on a clean culture dish at a thickness of ≤5 mm, and analyzed under the following conditions:
The test sample was placed under a high temperature condition (60±2° C.) for 10 d, the relative indexes were measured at the fifth and tenth days. […] If no significant change, the test at 40° C. was not necessary.
The test sample was placed under a 25° C. and RH 90%±5% condition for 10 d, and the sample were measured at the fifth and tenth days. Test items should include a moisture-absorption weight gain. If weighting percentage of moisture absorption was more than 5%, the test should be carried out under a 25° C. and RH 75%±5% condition using the same method; If weighting percentage of moisture absorption was less than 5%, and other inspection items met the requirements, the test was not necessary. The constant humidity condition can be realized by adopting constant temperature humidity chamber or placing a saturated saline solution under a closed container. […]
The test sample was placed in light box or other suitable light vessel under a 4500 Lx±500 Lx of illuminance condition for 10 d, and the sample were measured at the fifth and tenth days.
The impurity content of the sample was calculated by the normalization method of peak area using an HPLC chromatographic instrument under the above condition, the analytic conditions were shown below:
The detection was performed on Agilent 1200DAD high pressure liquid chromatography spectrometer (Zorbax Eclipse Plus C18 150×4.6 mm chromatographic column).
The test condition of HPLC: the run time was 30 minutes (min); the column temperature was 35° C.; the detection was carried out at the wavelength of 210 nm and 225 nm;
Mobile phase: phase C: acetonitrile phase D: ultrapure water flow rate: 1.0 mL/min.
Gradient elution, the ratio of mobile phase was shown as table B.

[3] = both sexes, beagle, dog, plasma, iv, i.v
[4] = both sexes, beagle, dog, plasma, po, p.o
[5] = high humidity (25° C., RH 90%±5%), 5 d, HPLC
[6] = high humidity (25° C., RH 90%±5%), 10 d, HPLC
[7] = high-temperature (60±2° C.), 5 d, HPLC
[8] = high-temperature (60±2° C.), 10 d, HPLC
[9] = illumination (4500 Lx±500 Lx), 5 d, HPLC
[10] = illumination (4500 Lx±500 Lx), 10 d, HPLC

AUC(0-t) [1, 3]: 617 ng·h/mL
Cmax [1, 3]: 148 ng/mL
half-life [1, 3]: 538 min
half-life ([1]; both sexes, beagle, dog, plasma, oral, p.o): 533 min
bioavailability ([1]; both sexes, beagle, dog, plasma, po, p.o, read-out: F (oral bioavailability)): 97.5%
AUC(0-t) [1, 4]: 602 ng·h/mL
Cmax [1, 4]: 66.2 ng/mL
F (oral bioavailability) ([1]; p.o): 97.57%
total impurity ([2]; 0 d, HPLC peak area normalization): 0.15%
purity ([2]; 0 d, HPLC): 99.85%
purity [2, 5]: 99.85%
total impurity [2, 5]: 0.15%
purity [2, 6]: 99.81%
total impurity [2, 6]: 0.19%
purity [2, 7]: 99.83%
total impurity [2, 7]: 0.17%
purity [2, 8]: 99.81%
total impurity [2, 8]: 0.19%
stability (summary in words) ([2]; high-temperature, high humidity or illumination for 10 d): good stability
purity [2, 9]: 99.83%
total impurity [2, 9]: 0.17%
purity [2, 10]: 99.78%
total impurity [2, 10]: 0.22%
Structure (SMILES): CCOc1ccc(Cc2cc([C@]34OC[C@]([C@@H](C)O)(O3)[C@@H](O)[C@H](O)[C@H]4O)ccc2Cl)cc1 [Complex (IA), Complex (IA) of (1R,2S,3S,4R,5S)-5-(4-chloro-3-(4-ethoxybenzyl)phenyl)-1-((1R)-1-hydroxyethyl)-6,8-dioxabicyclo[3.2.1]octane-2,3,4-triol (I-n) and L-pyroglutamic acid]
